Assay results reported in patent US10034915B2, “Small heat shock proteins and active fragments thereof as a therapy for inflammation and ischemia” (The Board of Trustees of the Leland Stanford Junior …, priority 2011, dated 2018).
Entries after “also recorded” stand apart in the source; their conditions may differ.

Key:
[1] = tested on: partially denatured proteins; details: in vitro, literature; cited from earlier work
[2] = tested on: HSPB5−/− EAE mice; experiment: EAE in 129Sv HSPB5−/− mice immunized with MOG35-55/CFA; type: in vivo, mouse
Experimental: Efficacy of HSPB5 73-92 in EAE in HSPB5 deficient mice. We tested whether HSPB5 73-92 alone was sufficient to rescue EAE in alpha B crystallin deficient (HSPB5−/−) mice.
EAE induction and scoring. Mice were immunized subcutaneously with 100 μL of myelin oligodendrocyte glycoprotein (MOG) peptide 35-55 (2 mg/mL) and Complete Freund's adjuvant (CFA) (4 mg/mL) on Day 0. […] […] Mice were scored every day on a clinical scoring system: 0, healthy mouse; 1, limp tail; 2, weak hindlimbs; 3, complete hindlimb paralysis; 4, weak forelimbs and paralyzed hindlimbs; 5, dead.

[3] = tested on: EAE mice; experiment: EAE in 129Sv WT mice immunized with MOG35-55/CFA, clinical scoring; type: in vivo, mouse; details: peptide every other day from peak of disease (10 μg, or 1 μg equimolar to 10 μg protein)
Experimental: To investigate if the therapeutic efficacy of HSPB5 is a common feature of the whole family of small heat shock proteins, we expressed recombinant HSPB1, HSPB4, and HSPB5. We then treated EAE mice every other day starting at the peak of disease, when clinical paralysis is apparent, with an intraperitoneal (IP) administration of 10 μg of either HSPB1, HSPB4, HSPB5, or PBS as the vehicle control. […] Treating mice in vivo with HSPB1, HSPB4, or HSPB5 led to a reduction in the production of pro-inflammatory cytokines by MOG stimulated splenocytes taken from MOG immunized mice (FIG. 1c). Improvement of the clinical score was dependent on continued dosing of the sHSP. After dosing was stopped, symptoms returned, and paralysis worsened after 96 hours.
Therapeutic Peptides from HSPB5 in EAE. […] We made a series of overlapping, 15-mer peptide fragments of HSPB5 and treated mice at the peak of disease with 10 μg of each peptide every other day, using HSPB5 as a positive control and PBS as a negative control.
EAE induction and scoring. Mice were immunized subcutaneously with 100 μL of myelin oligodendrocyte glycoprotein (MOG) peptide 35-55 (2 mg/mL) and Complete Freund's adjuvant (CFA) (4 mg/mL) on Day 0. […] Mice were randomized at the peak of disease into the treatment groups where they received 10 ug/200 μL of sHSP, 1 μg/200 uL of sHSP peptide, or 200 μL of PBS (vehicle) every other day. Mice were scored every day on a clinical scoring system: 0, healthy mouse; 1, limp tail; 2, weak hindlimbs; 3, complete hindlimb paralysis; 4, weak forelimbs and paralyzed hindlimbs; 5, dead.

[4] = tested on: EAE mice; experiment: as above; type: in vivo, mouse; details: prevention paradigm
[5] = tested on: pro-inflammatory cytokines of MOG stimulated splenocytes; experiment: Peripheral immune cell activation: cytokine production by MOG stimulated splenocytes of treated MOG immunized mice (ELISA); design: species or system mouse; details: mice treated in vivo; splenocytes from MOG immunized mice
Experimental: Peripheral immune cell activation and cytokine analysis. Spleens and lymph nodes were isolated from mice 9 days after immunization with MOG35-55 and CFA. Spleens were mechanically disrupted to isolate single cell splencytes suspension. Cells were cultured in flat bottomed, 96-well plates in media (RPMI 1640 supplemented with […] L-glutamine, 1 mM sodium pyruvate, 0.1 mM non-essential amino acids, 100 U/mL penicillin, 0.1 mg/mL streptomycin, 0.5 uM 2-mercaptoethanol, and 10% fetal calf serum). Cells were stimulated with MOG35-55 (5 ug/mL, 10 ug/mL, and 20 ug/mL). For all activation assays, splenocytes were pooled from three mice per group and triplicate wells were plated. Supernatants of cells were collected at the time of peak production for each cytokine (48 hrs: IL-2, IL-12p40, IL-6; 72 hrs: TNFα and IFNγ; 96 hrs: IL-17; 120 hrs: IL-10). Cytokines were measured in the supernatants using anti-mouse OPTEIA ELISA kits (BD Pharmingen for IFNγ, IL-10, IL-2, IL-6, and IL-12p40; R&D Systems for IL-17 and TNFα).

**Q.** Which results are given for DRFSVNLDVKHFSPEELKVK [HSPB5 73-92]?
**A.** molecular chaperone activity [1]: important for molecular chaperone activity; disease scores ([2]; 10 ug peptide every other day from peak of disease): lower disease scores; also recorded: sufficient to ameliorate disease; incidence of disease, Day 11 ([2]; treatment from Day 0): 0%; incidence of disease, Day 12 ([2]; treatment from Day 0): 0%; incidence of disease, Day 13 ([2]; treatment from Day 0): 11%; incidence of disease, Day 14 ([2]; treatment from Day 0): 33%; incidence of disease, Day 15 ([2]; treatment from Day 0): 33%; incidence of disease, Day 16 ([2]; treatment from Day 0): 33%; incidence of disease, Day 17 ([2]; treatment from Day 0): 66%; incidence of disease, Day 18 ([2]; treatment from Day 0): 66%; EAE clinical scores ([2]; treatment from Day 0, vs PBS): ameliorated EAE; onset of disease ([2]; treatment from Day 0, vs PBS): delayed onset of disease; EAE clinical scores ([2]; treatment from Day 0, vs PBS, listed as B5 73-92): lower EAE clinical scores; therapeutic efficacy of peptide in EAE (clinical scores) [3]: comparably therapeutic; also recorded: as therapeutic as HSPB5 71-85; disease severity ([4]; 10 μg peptide every day from Day 0): ameliorated EAE; disease severity ([4]; 10 μg peptide every day from Day 0, listed as B5 73-92): lower disease severity; onset of disease ([4]; treatment from Day 0): delayed onset of disease; production of pro-inflammatory cytokines by MOG stimulated splenocytes [5]: decrease peripheral immune activation
